In ChEMBL document CHEMBL1134991, “Alpha(1)-adrenoceptor activation: a comparison of 4-(anilinomethyl)imidazoles and 4-(phenoxymethyl)imidazoles to related 2-imidazolines” (Bioorg Med Chem Lett, 2002):

Columns and labels:
[1] = biological target: T1, Alpha-1A adrenergic receptor (Homo sapiens) (UniProt P35348); test: Activation of human alpha-1A adrenergic receptor expressed in rat-1 fibroblasts; expressed as a percent of the maximal effect of the phenylephrine; type: functional
T1 sequence (whole entry): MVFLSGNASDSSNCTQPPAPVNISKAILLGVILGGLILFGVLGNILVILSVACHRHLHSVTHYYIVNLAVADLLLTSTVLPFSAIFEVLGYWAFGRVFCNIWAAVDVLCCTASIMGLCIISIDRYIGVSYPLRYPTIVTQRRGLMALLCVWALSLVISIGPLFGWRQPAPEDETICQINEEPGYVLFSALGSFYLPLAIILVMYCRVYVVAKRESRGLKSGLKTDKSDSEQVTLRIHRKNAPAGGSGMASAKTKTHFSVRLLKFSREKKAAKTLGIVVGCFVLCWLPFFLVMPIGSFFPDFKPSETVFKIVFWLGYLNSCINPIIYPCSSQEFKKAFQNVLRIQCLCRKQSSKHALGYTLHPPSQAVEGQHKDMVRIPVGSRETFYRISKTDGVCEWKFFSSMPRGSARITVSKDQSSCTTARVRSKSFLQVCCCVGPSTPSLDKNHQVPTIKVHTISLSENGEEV

[2] = biological target: T2, Alpha-1A adrenergic receptor (Homo sapiens, UniProt P35348); test: Activation of human alpha-1A adrenergic receptor expressed in rat-1 fibroblasts; type: functional
T2 sequence (P35348 whole entry): T1 sequence (whole entry)

[3] = biological target: T3, Alpha-1B adrenergic receptor (Homo sapiens, UniProt P35368); test: Activation of human alpha-1B adrenergic receptors expressed in rat-1 fibroblasts; type: functional
T3 sequence (P35368 whole entry): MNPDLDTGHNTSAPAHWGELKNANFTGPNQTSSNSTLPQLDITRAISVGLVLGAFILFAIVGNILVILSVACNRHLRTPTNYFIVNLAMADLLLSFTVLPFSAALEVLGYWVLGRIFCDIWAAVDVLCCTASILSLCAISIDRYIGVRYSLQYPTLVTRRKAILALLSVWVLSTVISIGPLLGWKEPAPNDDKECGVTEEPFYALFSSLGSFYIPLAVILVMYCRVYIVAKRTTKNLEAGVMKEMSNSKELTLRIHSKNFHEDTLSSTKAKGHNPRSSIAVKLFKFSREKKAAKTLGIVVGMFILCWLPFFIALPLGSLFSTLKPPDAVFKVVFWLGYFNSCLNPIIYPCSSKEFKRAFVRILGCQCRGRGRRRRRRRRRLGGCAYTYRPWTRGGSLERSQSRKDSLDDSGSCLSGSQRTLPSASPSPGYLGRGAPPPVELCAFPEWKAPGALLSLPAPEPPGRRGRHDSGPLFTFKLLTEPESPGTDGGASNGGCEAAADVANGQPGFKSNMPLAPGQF

[4] = biological target: T4, Alpha-1D adrenergic receptor (Homo sapiens, UniProt P25100); test: Activation of human Alpha-1D adrenergic receptors expressed in rat-1 fibroblasts; type: functional
T4 sequence (P25100 whole entry): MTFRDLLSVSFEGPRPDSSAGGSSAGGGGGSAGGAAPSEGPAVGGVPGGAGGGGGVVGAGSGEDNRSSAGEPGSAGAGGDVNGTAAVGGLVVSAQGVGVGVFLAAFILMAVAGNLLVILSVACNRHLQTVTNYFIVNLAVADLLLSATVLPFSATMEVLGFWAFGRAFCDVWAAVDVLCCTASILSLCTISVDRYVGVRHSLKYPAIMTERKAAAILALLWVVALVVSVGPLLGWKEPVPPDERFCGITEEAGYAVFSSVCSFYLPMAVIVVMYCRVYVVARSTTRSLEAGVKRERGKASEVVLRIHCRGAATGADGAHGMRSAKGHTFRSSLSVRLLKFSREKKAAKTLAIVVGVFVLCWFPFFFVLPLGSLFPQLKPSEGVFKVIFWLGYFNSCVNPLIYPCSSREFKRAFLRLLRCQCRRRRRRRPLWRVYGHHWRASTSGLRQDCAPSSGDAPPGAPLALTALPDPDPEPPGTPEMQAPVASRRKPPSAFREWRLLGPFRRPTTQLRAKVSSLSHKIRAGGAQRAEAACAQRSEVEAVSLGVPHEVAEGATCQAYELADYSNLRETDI

[5] = biological target: T2, Alpha-1A adrenergic receptor; test: In vitro binding affinity against cloned human alpha-1A-adrenoceptor receptors expressed in rat-1 fibroblasts
[6] = biological target: T3, Alpha-1B adrenergic receptor; test: In vitro binding affinity against cloned human alpha-1B-adrenoceptor receptors expressed in rat-1 fibroblasts
[7] = biological target: T4, Alpha-1D adrenergic receptor; test: In vitro binding affinity against cloned human alpha-1D-adrenoceptor receptors expressed in rat-1 fibroblasts
[8] = biological target: T5, Alpha-1B adrenergic receptor (Homo sapiens) (UniProt P35368); test: Activation of human alpha-1B-adrenoceptor receptors expressed in rat-1 fibroblasts as percent maximal effect relative to phenylephrine; type: functional
T5 sequence (whole entry): T3 sequence (P35368 whole entry)

[9] = biological target: T6, Alpha-1D adrenergic receptor (Homo sapiens) (UniProt P25100); test: Activation of human alpha-1D-adrenoceptor receptor expressed in rat-1 fibroblasts relative to phenylephrine; type: functional
T6 sequence (whole entry): T4 sequence (P25100 whole entry)

[10] = Acid dissociation constant for the compound was determined; type: ADME
[11] = biological target: T7, Adrenergic receptor alpha-1 (Rattus norvegicus, UniProt P15823+P23944+P43140); test: Inhibition of binding of [3H]-prazosin at alpha1 adrenoceptors isolated from rat brain
T7 sequence (P15823 whole entry): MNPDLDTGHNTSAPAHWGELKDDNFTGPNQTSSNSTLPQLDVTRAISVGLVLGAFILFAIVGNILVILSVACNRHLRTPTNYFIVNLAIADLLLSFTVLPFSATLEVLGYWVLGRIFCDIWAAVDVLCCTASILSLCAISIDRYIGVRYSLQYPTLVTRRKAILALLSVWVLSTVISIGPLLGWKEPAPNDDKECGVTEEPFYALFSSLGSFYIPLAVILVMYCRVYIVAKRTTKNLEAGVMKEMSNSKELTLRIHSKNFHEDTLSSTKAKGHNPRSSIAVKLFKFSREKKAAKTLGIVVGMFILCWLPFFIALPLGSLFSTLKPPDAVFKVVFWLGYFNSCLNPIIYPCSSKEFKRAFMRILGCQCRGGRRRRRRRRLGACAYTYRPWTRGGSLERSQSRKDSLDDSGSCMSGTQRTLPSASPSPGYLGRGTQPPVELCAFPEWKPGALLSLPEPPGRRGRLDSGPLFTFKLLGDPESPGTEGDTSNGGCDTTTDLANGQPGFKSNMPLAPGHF
T7 sequence (P23944 whole entry): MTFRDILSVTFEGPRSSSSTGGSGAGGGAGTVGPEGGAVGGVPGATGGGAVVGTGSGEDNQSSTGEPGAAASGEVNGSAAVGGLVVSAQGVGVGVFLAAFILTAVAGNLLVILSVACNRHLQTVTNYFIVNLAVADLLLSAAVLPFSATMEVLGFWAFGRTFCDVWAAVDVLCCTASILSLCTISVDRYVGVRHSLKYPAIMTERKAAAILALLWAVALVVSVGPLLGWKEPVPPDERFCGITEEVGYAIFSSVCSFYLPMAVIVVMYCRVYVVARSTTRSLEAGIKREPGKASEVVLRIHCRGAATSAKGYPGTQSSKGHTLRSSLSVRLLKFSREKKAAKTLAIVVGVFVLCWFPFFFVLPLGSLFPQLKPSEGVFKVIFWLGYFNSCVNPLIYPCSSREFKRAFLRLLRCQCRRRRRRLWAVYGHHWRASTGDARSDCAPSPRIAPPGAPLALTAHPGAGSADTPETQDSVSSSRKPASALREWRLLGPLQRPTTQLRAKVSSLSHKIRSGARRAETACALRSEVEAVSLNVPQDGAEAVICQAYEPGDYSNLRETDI
T7 sequence (P43140 whole entry): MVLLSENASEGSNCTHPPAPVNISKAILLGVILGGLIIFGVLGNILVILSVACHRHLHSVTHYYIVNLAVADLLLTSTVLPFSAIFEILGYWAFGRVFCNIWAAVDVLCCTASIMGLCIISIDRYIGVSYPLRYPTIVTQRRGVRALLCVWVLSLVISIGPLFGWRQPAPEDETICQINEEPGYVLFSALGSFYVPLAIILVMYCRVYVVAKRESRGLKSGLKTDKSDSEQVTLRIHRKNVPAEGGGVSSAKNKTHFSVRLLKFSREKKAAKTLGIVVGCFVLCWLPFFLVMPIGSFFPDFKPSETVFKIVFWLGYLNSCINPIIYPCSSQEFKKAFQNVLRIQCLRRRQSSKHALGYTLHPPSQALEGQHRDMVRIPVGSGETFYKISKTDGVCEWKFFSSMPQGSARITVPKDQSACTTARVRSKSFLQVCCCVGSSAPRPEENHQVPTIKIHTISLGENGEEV

| Structure (SMILES) | Max [1] [%] | EC50 [2] [nM] | EC50 [3] [nM] | EC50 [4] [nM] | IC50 [5] [nM] | IC50 [6] [nM] | IC50 [7] [nM] | Max [8] [%] | Max [9] [%] | pKa [10] | IC50 [11] [nM] |
| --- | --- | --- | --- | --- | --- | --- | --- | --- | --- | --- | --- |
| CS(=O)(=O)c1ccccc1NCc1c[nH]cn1 | 97 | 126 | > 100000 | > 100000 |  |  |  |  |  |  |  |
| CCN(CC)C(=O)c1ccccc1OCC1=NCCN1 |  | > 100000 | > 100000 | > 100000 | > 30200 | > 30200 | > 30200 |  |  |  |  |
| c1ccc(-c2ccccc2OCC2=NCCN2)cc1 | 96 |  |  |  | 66.1 | 2400 | 550 |  |  |  |  |
| c1ccc(-c2ccno2)c(OCC2=NCCN2)c1 | 91 | 6.31 | 100 | 100 |  |  |  | 81 | 34 |  |  |
| c1ccc(-c2cnco2)c(NCC2=NCCN2)c1 | 107 | 20 | > 5010 | > 5010 |  |  |  |  |  |  |  |
| CS(=O)(=O)c1ccccc1NCC1=NCCN1 | 105 | 50.1 | > 100000 | > 100000 |  |  |  |  |  |  |  |
| Oc1ccc2cccc(NCc3c[nH]cn3)c2c1 | 100 | 63.1 | > 5010 | > 5010 |  |  |  |  |  |  |  |
| CCN(CC)C(=O)c1ccccc1NCc1c[nH]cn1 | 114 | 63.1 | > 5010 | > 5010 |  |  |  |  |  |  |  |
| c1ccc(-c2ccno2)c(OCc2c[nH]cn2)c1 | 91 | 158 | > 100000 | > 100000 |  |  |  |  |  |  |  |
| Oc1ccc2cccc(NCC3=NCCN3)c2c1 | 110 | 6.31 | > 5010 | 31.6 |  |  |  |  | 53 |  |  |
| c1ccc(N2CCCCC2)c(NCC2=NCCN2)c1 | 114 | 12.6 | > 5010 | > 5010 |  |  |  |  |  |  |  |
| CCCNC(=O)c1ccccc1NCC1=NCCN1 |  |  |  |  | 282 | 1700 | 513 |  |  |  |  |
| c1ccc(-c2ccccc2OCc2c[nH]cn2)cc1 | 102 | 15.8 | > 100000 | > 100000 | 302 | 5890 | 933 |  |  |  |  |
| COc1ccc(S(C)(=O)=O)c(NCC2=NCCN2)c1 |  | 12.6 | > 100000 | > 100000 |  |  |  |  |  |  |  |
| c1ccc(-c2ccccc2OCC2=NCCN2)nc1 | 104 |  |  |  |  |  |  |  |  |  |  |
| CCN(CC)C(=O)c1ccccc1OCc1c[nH]cn1 |  | > 100000 | > 100000 | > 100000 | > 30200 | > 30200 | > 30200 |  |  |  |  |
| CSc1ccccc1NCc1c[nH]cn1 | 94 |  |  |  |  |  |  | 78 | 36 |  |  |
| CSc1ccccc1NCC1=NCCN1 | 105 | 5.01 | 2 | 7.94 | 107 | 219 | 19.5 | 105 | 55 | 10.3 |  |
| CSc1ccccc1NCc1cnc[nH]1 |  | 10 | 25.1 | 20 | 170 | 891 | 57.5 |  |  | 6.5 |  |
| c1ccc(-c2cnco2)c(NCc2c[nH]cn2)c1 | 120 | 50.1 | > 5010 | > 251 |  |  |  |  | 51 |  |  |
| Cc1ccc(C)c(OCc2c[nH]cn2)c1 |  |  |  |  |  |  |  |  |  |  | 102 |
| Clc1cccc(Cl)c1NCc1c[nH]cn1 |  |  |  |  |  |  |  |  |  |  | 263 |
| c1ccc(N2CCCCC2)c(NCc2c[nH]cn2)c1 | 95 | 50.1 | > 5010 | > 5010 |  |  |  |  |  |  |  |
| CCCNC(=O)c1ccccc1NCc1c[nH]cn1 | 100 | 3.98 | 316 | 79.4 | 77.6 | 3020 | 871 | 89 | 77 |  |  |
